# Species on record: Rattus norvegicus
# Test: Open TG-GATES - Regimen: Single
# Type: toxicity, organism-based, Sprague-Dawley
# Set-up: regimen Single, gender Male, age 6 weeks
# Conditions: in vivo, po, 3 mg/kg, route gavage, dose level Low; for APTT / Bas / Eos / Fbg / Hb / Ht / Lym / MCH / MCHC / MCV / Mono / Neu / PT / Plat / RBC / Ret / WBC: tissue Blood; for KIDNEY_L / KIDNEY_R / KIDNEY_TOTAL: tissue Kidney; for LIVER: tissue Liver; for A/G / ALP / ALT / AST / BUN / CRE / Ca / Cl / DBIL / GLC / IP / K / LDH / Na / PL / RALB / TBIL / TC / TG / TP / gamma-GTP: tissue Plasma
structure (smiles),measurement,setting,value
Cn1cnc([N+](=O)[O-])c1Sc1ncnc2nc[nH]c12 [AZATHIOPRINE],TERMINAL_BW,3 h,191 g
same,APTT,3 h,23.4 s
same,Bas,3 h,0%
same,Eos,3 h,1%
same,Fbg,3 h,295.8 mg/dL
same,Hb,3 h,13.4 g/dL
same,Ht,3 h,40.1%
same,Lym,3 h,77.8%
same,MCH,3 h,21.6 pg
same,MCHC,3 h,33.4%
same,MCV,3 h,64.6 fL
same,Mono,3 h,1.8%
same,Neu,3 h,18.2%
same,PT,3 h,15.8 s
same,Plat,3 h,115.7 x10_4/uL
same,RBC,3 h,621.4 x10_4/ul
same,Ret,3 h,9.1%
same,WBC,3 h,67.9 x10_2/uL
same,KIDNEY_L,3 h,0.8 g
same,KIDNEY_R,3 h,0.9 g
same,KIDNEY_TOTAL,3 h,1.7 g
same,LIVER,3 h,8.6 g
same,A/G,3 h,1.2
same,ALP,3 h,1535.2 IU/L
same,ALT,3 h,41.6 IU/L
same,AST,3 h,73.4 IU/L
same,BUN,3 h,13.2 mg/dL
same,CRE,3 h,0.1 mg/dL
same,Ca,3 h,10.6 mg/dL
same,Cl,3 h,106.8 meq/L
same,DBIL,3 h,0.002 mg/dL
same,GLC,3 h,190.2 mg/dL
same,IP,3 h,8.1 mg/dL
same,K,3 h,4.2 meq/L
same,LDH,3 h,273.6 IU/L
same,Na,3 h,142.8 meq/L
same,PL,3 h,139.2 mg/dL
same,RALB,3 h,3 g/dL
same,TBIL,3 h,0.004 mg/dL
same,TC,3 h,75.4 mg/dL
same,TG,3 h,68 mg/dL
same,TP,3 h,5.5 g/dL
same,gamma-GTP,3 h,1 IU/L
same,TERMINAL_BW,6 h,185.7 g
same,APTT,6 h,21.8 s
same,Bas,6 h,0%
same,Eos,6 h,0.8%
same,Fbg,6 h,324.4 mg/dL
same,Hb,6 h,13.1 g/dL
same,Ht,6 h,39%
same,Lym,6 h,69.2%
same,MCH,6 h,22.3 pg
same,MCHC,6 h,33.6%
same,MCV,6 h,66.3 fL
same,Mono,6 h,2.2%
same,Neu,6 h,26.2%
same,PT,6 h,15.7 s
same,Plat,6 h,130.1 x10_4/uL
same,RBC,6 h,589.2 x10_4/ul
same,Ret,6 h,9.5%
same,WBC,6 h,95.2 x10_2/uL
same,KIDNEY_L,6 h,0.8 g
same,KIDNEY_R,6 h,0.8 g
same,KIDNEY_TOTAL,6 h,1.7 g
same,LIVER,6 h,8.1 g
same,A/G,6 h,1.2
same,ALP,6 h,1674.4 IU/L
same,ALT,6 h,43.2 IU/L
same,AST,6 h,75 IU/L
same,BUN,6 h,9.4 mg/dL
same,CRE,6 h,0.1 mg/dL
same,Ca,6 h,10.5 mg/dL
same,Cl,6 h,106.8 meq/L
same,DBIL,6 h,0.002 mg/dL
same,GLC,6 h,182.4 mg/dL
same,IP,6 h,8.8 mg/dL
same,K,6 h,4.2 meq/L
same,LDH,6 h,288.6 IU/L
same,Na,6 h,142.2 meq/L
same,PL,6 h,135.8 mg/dL
same,RALB,6 h,3 g/dL
same,TBIL,6 h,0.008 mg/dL
same,TC,6 h,78.8 mg/dL
same,TG,6 h,48.4 mg/dL
same,TP,6 h,5.5 g/dL
same,gamma-GTP,6 h,1 IU/L
same,TERMINAL_BW,9 h,186.8 g
same,APTT,9 h,22.5 s
same,Bas,9 h,0%
same,Eos,9 h,1%
same,Fbg,9 h,311.8 mg/dL
same,Hb,9 h,13 g/dL
same,Ht,9 h,38.7%
same,Lym,9 h,74%
same,MCH,9 h,21.2 pg
same,MCHC,9 h,33.5%
same,MCV,9 h,63.4 fL
same,Mono,9 h,2.4%
same,Neu,9 h,20.6%
same,PT,9 h,15.3 s
same,Plat,9 h,125.3 x10_4/uL
same,RBC,9 h,611 x10_4/ul
same,Ret,9 h,9.3%
same,WBC,9 h,83.5 x10_2/uL
same,KIDNEY_L,9 h,0.9 g
same,KIDNEY_R,9 h,0.9 g
same,KIDNEY_TOTAL,9 h,1.7 g
same,LIVER,9 h,7.5 g
same,A/G,9 h,1.2
same,ALP,9 h,1456.2 IU/L
same,ALT,9 h,38.4 IU/L
same,AST,9 h,70.4 IU/L
same,BUN,9 h,10.6 mg/dL
same,CRE,9 h,0.1 mg/dL
same,Ca,9 h,10.5 mg/dL
same,Cl,9 h,107 meq/L
same,DBIL,9 h,0 mg/dL
same,GLC,9 h,183.4 mg/dL
same,IP,9 h,9.3 mg/dL
same,K,9 h,4.2 meq/L
same,LDH,9 h,234.2 IU/L
same,Na,9 h,141.6 meq/L
same,PL,9 h,140.8 mg/dL
same,RALB,9 h,2.9 g/dL
same,TBIL,9 h,0.016 mg/dL
same,TC,9 h,83.4 mg/dL
same,TG,9 h,51.8 mg/dL
same,TP,9 h,5.4 g/dL
same,gamma-GTP,9 h,1 IU/L
same,TERMINAL_BW,24 h,202.9 g
same,APTT,24 h,21.3 s
same,Bas,24 h,0%
same,Eos,24 h,1%
same,Fbg,24 h,322.4 mg/dL
same,Hb,24 h,13.5 g/dL
same,Ht,24 h,39.2%
same,Lym,24 h,77.8%
same,MCH,24 h,21.9 pg
same,MCHC,24 h,34.5%
same,MCV,24 h,63.4 fL
same,Mono,24 h,2.2%
same,Neu,24 h,18.4%
same,PT,24 h,16 s
same,Plat,24 h,135.6 x10_4/uL
same,RBC,24 h,618.4 x10_4/ul
same,Ret,24 h,8.2%
same,WBC,24 h,63.3 x10_2/uL
same,KIDNEY_L,24 h,0.9 g
same,KIDNEY_R,24 h,0.9 g
same,KIDNEY_TOTAL,24 h,1.8 g
same,LIVER,24 h,9.7 g
same,A/G,24 h,1.3
same,ALP,24 h,1726.6 IU/L
same,ALT,24 h,48.8 IU/L
same,AST,24 h,75.4 IU/L
same,BUN,24 h,14.6 mg/dL
same,CRE,24 h,0.1 mg/dL
same,Ca,24 h,11.1 mg/dL
same,Cl,24 h,106.8 meq/L
same,DBIL,24 h,0 mg/dL
same,GLC,24 h,189 mg/dL
same,IP,24 h,7.2 mg/dL
same,K,24 h,4.1 meq/L
same,LDH,24 h,318.6 IU/L
same,Na,24 h,143.4 meq/L
same,PL,24 h,148.2 mg/dL
same,RALB,24 h,3.2 g/dL
same,TBIL,24 h,0.004 mg/dL
same,TC,24 h,76.4 mg/dL
same,TG,24 h,120 mg/dL
same,TP,24 h,5.7 g/dL
same,gamma-GTP,24 h,1.2 IU/L
